Measured values: PMC10874388, “Cyclic peptides discriminate BCL-2 and its clinical mutants from BCL-XL by engaging a single-residue discrepancy” (Nature Communications, 2024)
Values joined by “and” are separate entries in the source; they are usually repeats but may differ in a detail not shown here. Identical values can stand only once.

What was measured:
Assay type in all cases: cell-based
[1] = system: Daudi cells; experiment: Cell viability assay (CellTiter-Glo), Daudi; conditions: Daudi
Method: (§1) The cell lines Jurkat (TIB-152), El4 (TIB-39), Daudi (ccl-213), RS4:11 (crl-1873), A549 (ccl-185), HepG2 (hb-8065) and PANC-1 (crl-1469) were purchased from ATCC (American Type Culture Collection), and MGC-803 (C6582) was purchased from Beyotime (https://www.beyotime.com/product/C6582.htm). […] Daudi and RS4:11 cells were cultured in RPMI-1640 medium (HyClone, SH30809.01) and 10% FBS (Gibco, 10099-141), whereas HepG2, MGC-803 and PANC-1 cells were cultured in MDEM (HyClone, SH30243.01). Cells were maintained at 37 °C under a humidified, 5% (v/v) CO2-containing atmosphere.
(§2) Cell viability was measured using CellTiter-Glo® 2.0 Reagent (Promega, G9242). […] After different inhibitors were added into serum-free medium and cultured for 4 h (RS4:11 for 6 h), FBS were supplemented to 10% and then incubated totally for 24 h or 48 h. Finally, the IC50 values were calculated based on measurements using a microplate reader (Thermo, Varioskan LUX). Statistical analysis was performed using software GraphPad Prism 7.0.

[2] = system: RS4:11 cells; experiment: Cell viability assay (CellTiter-Glo), RS4:11; conditions: single wells; for raw luminescence reading / inhibition rate: RS4:11
Method: as §1, §2

[3] = system: Jurkat cells; experiment: Cell viability assay (CellTiter-Glo), Jurkat
Method: as §1, §2

**Q.** With CC1(C)CCC(c2ccc(Cl)cc2)=C(CN2CCN(c3ccc(C(=O)NS(=O)(=O)c4ccc(N[C@H](CCN5CCOCC5)CSc5ccccc5)c(S(=O)(=O)C(F)(F)F)c4)cc3)CC2)C1 [ABT263] as the molecule, how does the “inhibition relative to 0 uM control, replicates” value ([1]; 0.78125 uM) read?
**A.** Its value is -13% and 6.58% and 11% and 14% and -14% and 9%.

**Q.** What about the “raw viability signal, replicates” value ([1]; 0.78125 uM) of the same molecule?
**A.** Its value is 1671 and 1386 and 1318 and 1281 and 1698 and 1345.

**Q.** And the “inhibition relative to 0 uM control, replicates” value ([1]; 1.5625 uM)?
**A.** The value was 12% and 28% and 13% and 5% and 2.67% and -0.427%.

**Q.** And the “raw viability signal, replicates” value ([1]; 1.5625 uM)?
**A.** Its value is 1303 and 1062 and 1294 and 1413 and 1444 and 1490.

**Q.** What about the “inhibition relative to 0 uM control, replicates” value ([1]; 3.125 uM) of the same molecule?
**A.** Its value is 25% and 4% and 5% and 17% and 29% and 48%.

**Q.** And the “raw viability signal, replicates” value ([1]; 3.125 uM)?
**A.** Its value is 1117 and 1426 and 1406 and 1238 and 1059 and 765.3.

**Q.** What about the “inhibition relative to 0 uM control, replicates” value ([1]; 6.25 uM) of the same molecule?
**A.** Its value is 51% and 31% and 24% and 23% and 20% and 40%.

**Q.** And the “raw viability signal, replicates” value ([1]; 6.25 uM)?
**A.** The value was 729.7 and 1018 and 1129 and 1147 and 1185 and 883.7.

**Q.** And the “inhibition relative to 0 uM control, replicates” value ([1]; 12.5 uM)?
**A.** Its value is 38% and 61% and 46% and 56% and 44% and 48%.

**Q.** And the “raw viability signal, replicates” value ([1]; 12.5 uM)?
**A.** The value was 920.2 and 574.4 and 802.0 and 653.5 and 827.6 and 767.5.

**Q.** And the “inhibition relative to 0 uM control, replicates” value ([1]; 25 uM)?
**A.** Its value is 71% and 70% and 63% and 61% (2×) and 82%.

**Q.** And the “raw viability signal, replicates” value ([1]; 25 uM)?
**A.** Its value is 436.2 and 441.9 and 545.0 and 582.0 and 581.4 and 260.8.

**Q.** What about the inhibition at 0.000488281 µM ([2]; Homo sapiens, RS4-11, RS4:11, 0.488281 nM, read-out: inhibition rate) of the same molecule?
**A.** Its inhibition at 0.000488281 µM is 67%.

**Q.** And the inhibition at 0.000976562 µM ([2]; Homo sapiens, RS4-11, RS4:11, 0.976562 nM, read-out: inhibition rate)?
**A.** Its inhibition at 0.000976562 µM is 81%.

**Q.** What about the inhibition at 0.00195312 µM ([2]; Homo sapiens, RS4-11, RS4:11, 1.95312 nM, read-out: inhibition rate) of the same molecule?
**A.** The inhibition at 0.00195312 µM was 97%.

**Q.** And the inhibition at 0.00390625 µM ([2]; Homo sapiens, RS4-11, RS4:11, 3.90625 nM, read-out: inhibition rate)?
**A.** The inhibition at 0.00390625 µM was 99%.

**Q.** What about the inhibition at 0.0078125 µM ([2]; Homo sapiens, RS4-11, RS4:11, 7.8125 nM, read-out: inhibition rate) of the same molecule?
**A.** The inhibition at 0.0078125 µM was 100%.

**Q.** What about the inhibition at 0.015625 µM ([2]; Homo sapiens, RS4-11, RS4:11, 15.625 nM, read-out: inhibition rate) of the same molecule?
**A.** Its inhibition at 0.015625 µM is 100%.

**Q.** And the inhibition at 0.03125 µM ([2]; Homo sapiens, RS4-11, RS4:11, 31.25 nM, read-out: inhibition rate)?
**A.** Its inhibition at 0.03125 µM is 100%.

**Q.** And the inhibition at 0.0625 µM ([2]; Homo sapiens, RS4-11, RS4:11, 62.5 nM, read-out: inhibition rate)?
**A.** Its inhibition at 0.0625 µM is 100%.

**Q.** What about the inhibition at 0.125 µM ([2]; Homo sapiens, RS4-11, RS4:11, 125 nM, read-out: inhibition rate) of the same molecule?
**A.** Its inhibition at 0.125 µM is 100%.

**Q.** And the inhibition at 0.25 µM ([2]; Homo sapiens, RS4-11, RS4:11, 250 nM, read-out: inhibition rate)?
**A.** Its inhibition at 0.25 µM is 100%.

**Q.** What about the inhibition at 0.5 µM ([2]; Homo sapiens, RS4-11, RS4:11, 500 nM, read-out: inhibition rate) of the same molecule?
**A.** Its inhibition at 0.5 µM is 100%.

**Q.** And the inhibition at 1 µM ([2]; Homo sapiens, RS4-11, RS4:11, 1000 nM, read-out: inhibition rate)?
**A.** Its inhibition at 1 µM is 100%.

**Q.** What about the raw luminescence reading ([2]; 0.244141 nM) of the same molecule?
**A.** Its raw luminescence reading is 319400 and 358600 and 385500 and 388700 and 346000 and 423800.

**Q.** What about the raw luminescence reading ([2]; 0.488281 nM) of the same molecule?
**A.** The raw luminescence reading was 145900 and 162000 and 168900 and 156800 and 153400 and 152700.

**Q.** What about the inhibition rate ([2]; 0.488281 nM, 0.000488281 µM) of the same molecule?
**A.** Its inhibition rate is 63% and 62% and 65% and 66%.

**Q.** And the raw luminescence reading ([2]; 0.976562 nM)?
**A.** Its raw luminescence reading is 85360 and 92040 and 97200 and 90740 and 85390 and 85400.

**Q.** What about the inhibition rate ([2]; 0.976562 nM, 0.000976562 µM) of the same molecule?
**A.** Its inhibition rate is 79% and 78% and 80%.

**Q.** And the raw luminescence reading ([2]; 1.95312 nM)?
**A.** The raw luminescence reading was 14920 and 16290 and 16450 and 15190 and 15570 and 13650.

**Q.** What about the inhibition rate ([2]; 1.95312 nM, 0.00195312 µM) of the same molecule?
**A.** The inhibition rate was 96%.

**Q.** What about the raw luminescence reading ([2]; 3.90625 nM) of the same molecule?
**A.** The raw luminescence reading was 2969 and 3143 and 3110 and 2929 and 2545 and 2763.

**Q.** What about the raw luminescence reading ([2]; 7.8125 nM) of the same molecule?
**A.** The raw luminescence reading was 1394 and 1471 and 1609 and 1459 and 1530 and 1294.

**Q.** What about the raw luminescence reading ([2]; 15.625 nM) of the same molecule?
**A.** The raw luminescence reading was 649.5 and 693.0 and 701.2 and 740.3 and 855.6 and 501.0.

**Q.** And the raw luminescence reading ([2]; 31.25 nM)?
**A.** The raw luminescence reading was 598.7 and 870.6 and 1121 and 921.5 and 938.2 and 1010.

**Q.** And the raw luminescence reading ([2]; 62.5 nM)?
**A.** The raw luminescence reading was 361.9 and 494.9 and 587.5 and 446.2 and 364.9 and 488.9.

**Q.** What about the raw luminescence reading ([2]; 125 nM) of the same molecule?
**A.** The raw luminescence reading was 503.8 and 401.2 and 517.1 and 644.2 and 454.2 and 588.4.

**Q.** And the raw luminescence reading ([2]; 250 nM)?
**A.** Its raw luminescence reading is 1061 and 1147 and 1486 and 1266 and 1158 and 1293.

**Q.** And the raw luminescence reading ([2]; 500 nM)?
**A.** The raw luminescence reading was 507.0 and 488.7 and 440.9 and 484.8 and 485.1 and 504.0.

**Q.** And the raw luminescence reading ([2]; 1000 nM)?
**A.** The raw luminescence reading was 274.1 and 376.6 and 535.0 and 446.7 and 313.0 and 467.2.

**Q.** What about the “inhibition relative to 0 uM control, replicates” value ([3]; 0.375 uM) of the same molecule?
**A.** Its value is 36% and 32% (2×) and 29% and 31%.

**Q.** What about the “raw viability signal, replicates” value ([3]; 0.375 uM) of the same molecule?
**A.** The value was 1239000 and 1266000 and 1356000 and 1351000 and 1403000 and 1379000.

**Q.** And the “inhibition relative to 0 uM control, replicates” value ([3]; 0.75 uM)?
**A.** The value was 33% and 36% and 41%.

**Q.** And the “raw viability signal, replicates” value ([3]; 0.75 uM)?
**A.** Its value is 1132000 and 1330000 and 1241000 and 1225000 and 1265000 and 1179000.

**Q.** And the “inhibition relative to 0 uM control, replicates” value ([3]; 1.5 uM)?
**A.** The value was 44% and 41% and 40% and 37% and 34%.

**Q.** And the “raw viability signal, replicates” value ([3]; 1.5 uM)?
**A.** The value was 1078000 and 1124000 and 1172000 and 1189000 and 1263000 and 1304000.

**Q.** What about the “inhibition relative to 0 uM control, replicates” value ([3]; 3 uM) of the same molecule?
**A.** The value was 44% and 39% and 40%.

**Q.** And the “raw viability signal, replicates” value ([3]; 3 uM)?
**A.** Its value is 1152000 and 1105000 and 1149000 and 1214000 and 1192000 and 1143000.

**Q.** What about the “inhibition relative to 0 uM control, replicates” value ([3]; 6 uM) of the same molecule?
**A.** Its value is 47% and 44% and 41%.

**Q.** What about the “raw viability signal, replicates” value ([3]; 6 uM) of the same molecule?
**A.** Its value is 1071000 and 1059000 and 1122000 and 1132000 and 1181000 and 1149000.

**Q.** And the “inhibition relative to 0 uM control, replicates” value ([3]; 12 uM)?
**A.** The value was 60% and 56% and 54% and 53%.

**Q.** And the “raw viability signal, replicates” value ([3]; 12 uM)?
**A.** Its value is 855500 and 799300 and 877600 and 917700 and 934900 and 865100.

**Q.** What about the inhibition at 0.375 µM ([3]; Homo sapiens, 0.375 uM, read-out: inhibition relative to 0 uM control, replicates) of the same molecule?
**A.** The inhibition at 0.375 µM was 38%.

**Q.** And the inhibition at 0.75 µM ([3]; Homo sapiens, 0.75 uM, read-out: inhibition relative to 0 uM control, replicates)?
**A.** The inhibition at 0.75 µM was 43%.

**Q.** And the inhibition at 1.5 µM ([3]; Homo sapiens, 1.5 uM, read-out: inhibition relative to 0 uM control, replicates)?
**A.** The inhibition at 1.5 µM was 46%.

**Q.** What about the inhibition at 3 µM ([3]; Homo sapiens, 3 uM, read-out: inhibition relative to 0 uM control, replicates) of the same molecule?
**A.** Its inhibition at 3 µM is 42%.

**Q.** And the inhibition at 6 µM ([3]; Homo sapiens, 6 uM, read-out: inhibition relative to 0 uM control, replicates)?
**A.** The inhibition at 6 µM was 46%.

**Q.** What about the inhibition at 12 µM ([3]; Homo sapiens, 12 uM, read-out: inhibition relative to 0 uM control, replicates) of the same molecule?
**A.** Its inhibition at 12 µM is 57%.
